Measurements as given in patent US6562837B1, “Use of tetrahydroisoquinoline compounds for the treatment of septicemia” (Korea Institute of Science & Technology, priority 1998, dated 2003).

Experiments:
Rat thoracic aorta = test: Relaxation of phenylephrine-contracted isolated rat thoracic aorta; type: cell-based
[1] = system: acute thrombosis in the pulmonary artery; test: Acute thrombosis (collagen plus epinephrine i.v.) in mice, recovery from paralysis; type: in vivo
Experimental: A mixture of collagen (300:μg/kg) plus epinephrine (30:μg/kg) was injected into the tail vein of mice (ICR; […], the same mice were employed in all of the following experiments) to induce massive, acute thrombosis in the pulmonary artery. Thus, an acute thrombosis model, in which mice were paralyzed in 1-3 min after the injection and most of them died within 15 min was prepared. To investigate the effect of the compounds of Chemical Formulas 1 and 2 on the acute thrombosis, either of the compounds was orally administered to mice for 1 or 3 days. The intravenous injection of the mixture of collagen and epinephrine was conducted 1 hour after the final oral administration. An observation was taken to examine the mortality change and the recovery from the paralysis and the results are given in Tables 4 and 5, below.
Most of the mice were paralyzed within 1 min after the injection, following dilation of the pupils, difficult breathing, and convulsions. Most of the mice either died within 5 min or were subjected to paralysis for 15 min or longer. Only a few of them recovered from the paralysis.

[2] = system: thrombus formation in AVS tube; test: Thrombus formation in arterio-venous shunt (AVS) tube in rats; type: in vivo; settings: for Weight (mg) of thrombus: control 42.67 ± 5.381
Experimental: An AVS tube was prepared. For this, a scalp vein set was cut into a length of 18 cm, and each end was connected to a 18G syringe needle while a 100% cotton thread 5 cm long was fixed to the center of the tube. Rats were anesthetized with ketamine (250 mg/kg) by injection (i.m.) and underwent laparotomy. An AVS tube filled with saline was installed between the abdominal aorta and the renal vein in such a way that its one syringe needle was inserted in the abdominal aorta and the other syringe needle was inserted in the renal vein. Blood was allowed to pass through the AVS tube so as to form thrombus on the cotton thread. After circulation of blood through the AVS tube for 15 min, the thread was taken out from the AVS tube. The weight of the thrombus formed on the cotton thread was determined by weighing the thread.

LPS-induced DIC and MOF = test: Indices for bacterial endotoxin (LPS)-induced DIC and MOF in rats; type: in vivo; settings: 10 mg/kg and 50 mg/kg orally, vs control given LPS (20 mg/kg) only; for number of platelets in blood: FIG. 3; for prothrombin time (PT): FIG. 4; for activated partial thromboplastin time (aPTT): FIG. 5; for fibrinogen level in blood: FIG. 6; for FDP level in blood: FIG. 7; for S-GOT level in blood: FIG. 8; for S-GPT level in blood: FIG. 9; for BUN level in blood: FIG. 10
Experimental: Rats (Sprague-Dawley, 250±50 g) were anesthetized with ketamine (250 mg/kg) by injection (i.m.). 30 min later, LPS (20 mg/kg) was infused into the tail vein of the rats over a 3 hour period. Thereafter, blood was harvested from the artery and measured for platelet number, PT, aPTT, fibrinogen level, FDP level, and the levels of S-GOT, S-GPT and BUN. Test drugs were orally administered once a day for two days. One hour after the final administration of the compounds of interest, the rats were anesthetized.
As an anticoagulant, sodium citrate was used. The number of platelets in the blood was measured by use of a platelet counter. Anticoagulant-treated blood was centrifuged at 1,500×g for 10 min and the plasma was obtained for testing.
In order to obtain a prothrombin time (PT), 100 μl of the plasma was added with 50 μl of a thromboplastin reagent (Sigma, U.S.A.) and a clotting time was measured by use of a fibrometer (Becton Dickinson Co., Canada). Before mixing, the plasma and thromboplastin reagent were pre-incubated at 37° C. for 3 min and 5 min, respectively.
For measurement of the aPTT, 100 μl of the plasma was incubated at 37° C. for 3 min and added with 100 μl of an activated partial thromboplastin time reagent (Sigma U.S.A.) and 100 μl of 0.02 M CaCl2 and a clotting time was measured by use of a fibrometer. Before addition, the reagent was pre-incubated at 37° C. for 1 min while CaCl2 was pre-warmed at 37° C.
To determine the fibrinogen level, first, 20 μl of the plasma was mixed with 180 μl of a buffer and incubated at 37° C. for 2 min. To this solution was added 100 μl of a thrombin reagent (Sigma U.S.A.), followed by measuring a clotting time. Then, the fibrinogen level was determined from a calibration curve obtained with a fibrinogen reference.
The FDP level was determined by use of the Thrombo-Wellcotest kit (Murex Biotech Limit, British). To this end, first, each blood sample (non-citrated) was mixed well with a soybean trypsin inhibitor and Bothrops atrox venom and incubated at 37° C. for 30 min. After centrifugation at 1,500×g for 10 min twice, the supernatant serum was diluted with a glycine saline buffer. 50 μl of the diluted serum was mixed with a drop of a latex suspension on a test slide glass and spread uniformly. The slide was placed in a shaker for 2 min and observed for agglutination. The concentration of FDP was determined semi-quantitatively as follows: with 1:0 dilution (−):0 μg/ml, (+):1 μg/ml, (++):2 μg/ml; with 1:1 dilution, (+):3 μg/ml, (++) :4 μg/ml; with 1:2 dilution (+):5 μg/ml, (++):6 μg/ml, etc.
For the assay of S-GOT, S-GPT and BUN, diagnostic kits (Boehringer Mannheim; AST kit for S-GOT, ALT kit for S-GPT, and urea kit for BUN) were used, together with an automatic biochemical analyzer (Hitachi 747), with the help of Green Cross Reference Lab., Korea.
In detail, after oral administration of higenamine or the compounds of Chemical Formulas 1 and 2, LPS (20 mg/kg) was injected into rats over a 3 hour period to cause DIC and MOF. In order to examine the improvement in the indices for DIC and MOF, these test animals were compared with a control which was provided with LPS only.

LPS-caused death = test: Preventive effect on LPS-caused death in mice; type: in vivo; settings: for survival rate until 48 hours: 10 mg/kg i.p. 30 min before LPS (20 mg/kg i.p.), LPS only about 20%; for deaths up to 30 hours after the LPS injection: 20 mg/kg i.p. 30 min before LPS (20 mg/kg i.p.)
Experimental: When a large quantity of LPS is injected into animals, various diseases, such as DIC, are generated and they are dead of septic shock in a short period of time. In this experiment, LPS (20 mg/kg) was intraperitoneally injected into mice and the number of mice which were alive for 48 hours after the injection, was counted. Also, an examination was made of the influence of test drugs on the survival ratio.
LPS (20 mg/kg) was administered to mice by injection (i.p.), after which the mice alive were countered every 6 hours for 48 hours. 30 min before LPS injection, test drugs were intraperitoneally injected into the mice to examine the preventive effect on the LPS-caused death.

[3] = 10 mg/kg orally once for three successive days, recovered within 15 min
[4] = 10 mg/kg orally once for three successive days, recovered within 15 min, control 20%
[5] = 50 mg/kg orally once for three successive days, recovered within 15 min
[6] = 50 mg/kg orally once for three successive days, recovered within 15 min, control 20%
[7] = 50 mg/kg orally once, recovered from thrombotic paralysis within 15 min
[8] = 50 mg/kg orally once, recovered within 15 min, control 17%
[9] = 100 mg/kg orally once, recovered from thrombotic paralysis within 15 min
[10] = 100 mg/kg orally once, recovered within 15 min, control 17%
[11] = 10 mg/kg orally once a day for successive three days
[12] = 25 mg/kg orally once, first series, control 33.61 mg
[13] = 25 mg/kg orally once, first series, control 33.61 ± 7.620
[14] = 50 mg/kg orally once a day for successive three days
[15] = 50 mg/kg orally once, second series, control 39.54 mg
[16] = 50 mg/kg orally once, second series, control 39.54 ± 5.625

SMILES | IC50 (Rat thoracic aorta) | Mice Recovered, Number [1, 3] | Mice Recovered, % [1, 4] | Mice Recovered, Number [1, 5] | Mice Recovered, % [1, 6] | Mice Recovered, Number [1, 7] | Mice Recovered, % [1, 8] | Mice Recovered, Number [1, 9] | Mice Recovered, % [1, 10] | % Inhibition of thrombus formation [2, 11] | Weight (mg) of thrombus [2, 11] | % Inhibition of thrombus formation [2, 12] | Weights (mg) of thrombus [2, 13] | % Inhibition of thrombus formation [2, 14] | Weight (mg) of thrombus [2, 14] | % Inhibition of thrombus formation [2, 15] | Weights (mg) of thrombus [2, 16] | number of platelets in blood (LPS-induced DIC and MOF) | prothrombin time (PT) (LPS-induced DIC and MOF) | activated partial thromboplastin time (aPTT) (LPS-induced DIC and MOF) | other results
Oc1cc2c(cc1O)C(Cc1cccc3ccccc13)NCC2 (stereo not drawn) [Compound 1, 1-α-naphthylmethyl-6,7-dihydroxy-1,2,3,4-tetrahydroisoquinoline] | 2750 nM | 3 | 30% | 5 | 42% | 8 | 47% | 9 | 45% | 25.5% | 31.78 ± 8.385 mg | 39.7% | 20.27 ± 5.366 mg | 28.0% | 30.72 ± 6.334 mg | 24.8% | 29.72 ± 5.975 mg | increased | shortened | shortened | fibrinogen level in blood (LPS-induced DIC and MOF): increased; FDP level in blood (LPS-induced DIC and MOF): decreased; S-GOT level in blood (LPS-induced DIC and MOF): reduction; S-GPT level in blood (LPS-induced DIC and MOF): reduction; BUN level in blood (LPS-induced DIC and MOF): reduction; survival rate until 48 hours (LPS-caused death): 60%; deaths up to 30 hours after the LPS injection (LPS-caused death): no mice were dead until 30 hours
Oc1cc2c(cc1O)C(Cc1ccc3ccccc3c1)NCC2 (stereo not drawn) [Compound 2, 1-β-naphthylmethyl-6,7-dihydroxy-1,2,3,4-tetrahydroisoquinoline] | 2810 nM | 7 | 70% | 7 | 64% | 14 | 50% | 12 | 50% | 24.4% | 32.24 ± 4.836 mg | 32.5% | 22.68 ± 10.127 mg | 29.3% | 30.18 ± 6.571 mg | 27.7% | 28.58 ± 4.234 mg | increased | shortened | shortened | fibrinogen level in blood (LPS-induced DIC and MOF): increased; FDP level in blood (LPS-induced DIC and MOF): decreased; S-GOT level in blood (LPS-induced DIC and MOF): reduction; S-GPT level in blood (LPS-induced DIC and MOF): reduction; BUN level in blood (LPS-induced DIC and MOF): reduction; survival rate until 48 hours (LPS-caused death): 80%; deaths up to 30 hours after the LPS injection (LPS-caused death): no mice were dead until 30 hours
Oc1ccc(CC2NCCc3cc(O)c(O)cc32)cc1 (centres unmarked) [Higenamine, reference compound] | 1020 nM | 2 | 17% | 5 | 45% | 11 | 37% | 13 | 48% | 13.9% | 36.76 ± 7.964 mg | 31.6% | 22.98 ± 11.271 mg | 18.7% | 34.68 ± 8.513 mg | 25.1% | 29.61 ± 5.059 mg | increased | shortened | shortened | fibrinogen level in blood (LPS-induced DIC and MOF): increased; FDP level in blood (LPS-induced DIC and MOF): decreased; S-GOT level in blood (LPS-induced DIC and MOF): reduction; S-GPT level in blood (LPS-induced DIC and MOF): reduction; BUN level in blood (LPS-induced DIC and MOF): reduction; survival rate until 48 hours (LPS-caused death): 80%
